Experimental data from US20240166687A1, “REGULATORY T CELL-INDUCING PEPTIDE AND COMPOSITION INCLUDING SAME FOR PREVENTING OR TREATING AUTOIMMUNE DISEASE” (IUCF-HYU (INDUSTRY-UNIVERSITY COOPERATION FOUNDATION …, priority 2021, published 2024).
“Also recorded” adds a separate entry of the source.

Columns and labels:
[1] = test system: multiple sclerosis animal model; experiment: Analysis of efficiency in multiple sclerosis (MS) animal model (MOG35-55/CFA + PTX); assay type: in vivo, C57BL/6 mice; conditions: for clinical symptoms (clinical score): 100 μg (5 mg/kg) intraperitoneally once a day from day 7 after PTX; for clinical symptoms (clinical score) / number of Treg cells (spinal cord) / number of infiltrated lymphocytes in the spinal cord: comparator as named in the value
Experimental: 8-week-old female C57BL/6 mice were purchased from Orient Bio (Daejeon, Korea). All animal experiments were conducted in compliance with the animal experiment operation regulations of the Institutional Animal Care and Use Committee of Hanyang University. The mice were acclimatized for 2 weeks before the experiment. The mice were raised in a breeding room maintained at temperature 22±2° C. and 40-60% humidity with free access to feed. The light and dark cycles were adjusted at 12-hour intervals. Multiple sclerosis was induced by subcutaneous immunization using a MOG35-55/CFA emulsion PTX kit (Hooke Labs, Lawrence, MA, USA) according to the manufacturer's protocol. The mice were anesthetized with isoflurane and MOG35-55/CFA was subcutaneously injected bilaterally, followed by intraperitoneal injection of PTX (pertussis toxin) 2 hours and 24 hours later. The mice were randomly assigned to different groups after MOG immunization. Because paralysis due to immune response begins on day 7 after the injection of PTX, 100 μg (5 mg/kg) of the samples according to the present disclosure were intraperitoneally injected to the groups once a day from day 7. Each group was monitored every day after inducing multiple sclerosis and clinical symptoms were recorded. The clinical symptoms were evaluated based on the scoring system described in Table 2. The higher clinical scores indicate severer symptoms. The mice were euthanized at the end of the experiments and lymphocytes were isolated from the spinal cords. The isolated spinal cords were treated at 37° C. with 1 mg/mL of DNase 1 (10104159001; Sigma-Aldrich) and 1 mg/mL of collagenase D (11088866001; Sigma-Aldrich) and incubated at 80 rpm on a shaker for 40 minutes. After the enzyme treatment, 500 mM EDTA was added and lymphocytes were isolated by Percoll (GE Healthcare, Little Chalfont, UK) density-gradient centrifugation. The isolated infiltrated lymphocytes were restimulated with a cell stimulation cocktail (plus protein transport inhibitors) (ThermoFisher) at 37° C. for 4 hours and stained with anti-mouse CD4. The cells were fixed, permeabilized using a Foxp3/transcription factor staining buffer set (eBioscience) and stained with anti-mouse IFN-γ, anti-mouse IL-17 or anti-mouse Foxp3. The cells were analyzed using a FACS Canto flow cytometer and the FlowJo software version 10.7.1. For histological analysis, paraffin blocks of the spinal cord tissues were deparaffinized and treated with luxol fast blue. For combination staining, hematoxylin and eosin were used (Dako). The cells infiltrated in the white matter region of the spinal cord tissues were counted using the Image J software version 2.0.0. The increased number of Th1 and Th17 immune cells in the spinal cord means more severe multiple sclerosis, and the increased number of Treg cells means that the function of preventing or treating autoimmune disease such as multiple sclerosis is improved as the tolerance to self-antigens is maintained and the excessive response by the immune system is prevented.

[2] = test system: Th17 cells differentiated from splenocytes isolated from mouse; experiment: Analysis of effect under Th17 differentiation conditions (flow cytometry of IL-17A and Foxp3); assay type: cell-based; conditions: sample 2 μM; for effect of suppressing immune response (decrease of IL-17 and increase of Foxp3): flow cytometry 4 days later, comparator as named in the value (Th17/PBS control, K1, AP-K2)
Text: Th17 cells are a subset of CD4 T cells. The Th17 cells are known to secrete a cytokine known as IL-17 and cause inflammation. This is the major cause of autoimmune disease. And, Treg cells (regulatory T cells) are known to suppress and regulate inflammation by expressing the transcription factor called Foxp3. Accordingly, since it is thought that the effect of preventing and treating autoimmune disease may be achieved by regulating inflammation by inhibiting Th17 cells (IL-17) and increasing Treg (Foxp3) cells, the effect of the peptides of the present disclosure was investigated.
Undifferentiated CD4 T cells (naive CD4 T cells) were isolated from splenocytes of 6- to 8-week-old C57BL/6 mice using a mouse undifferentiated CD4+ T cell (naive CD4 T cell) isolation kit (Miltenyi Biotec, Auburn, CA, USA) according to the manufacturer's protocols. For RNAseq, the undifferentiated CD4 T cells (naive CD4 T cells) from the Foxp3-GFP mice were purified, differentiated into Th17 cells and sorted into Foxp3^+ and Foxp3^− populations using a cell sorter (FACS Aria cell sorter BD Biosciences, Franklin Lakes, NJ, USA). The purified undifferentiated CD4 T cells (naive CD4 T cells) were activated with plate-bound anti-CD3 (2 or 5 μg/mL, 553057; BD Pharmingen, La Jolla, CA) and anti-CD28 (2 or 5 μg/mL, 553294; BD Pharmingen, La Jolla, CA) antibodies and differentiated by treating with the following cytokine cocktails in a 96-well plate for 3 or 4 days: Th0; recombinant human TGF-β(R&D Systems) 0.25 ng/mL. Th1; anti-IL-4 (11B11; 16-7041-85; eBioscience) 5 μg/mL, IL-2 (212-12; Peprotech, Rocky Hill, NJ) 50 U/mL, recombinant murine IL-12 (212-12; Peprotech) 2 ng/mL, recombinant human TGF-β (R&D Systems) for Th1 0.25 ng/mL. Th17; anti-IFN-γ (XMG1.2; 16-7311-85; eBioscience) 5 μg/mL, anti-IL-4 (11B11; 16-7041-85; eBioscience) 5 μg/mL, recombinant murine TGF-β (7666-MB, R&D Systems, Minneapolis, MN) 2 ng/mL, IL-6 (216-16; Peprotech) 30 ng/mL, IL-23 (1887-ML-101; R&D Systems) 20 ng/mL, IL-1β (401-ML-010; R&D Systems) 20 ng/mL, and IL-2 (Peprotech) 50 U/mL. Treg; IL-2 (Peprotech) 50 U/mL and TGF-β (R&D Systems) 0.5 ng/mL.
The cells were cotreated with the cytokine cocktails and the samples (2 μM). 4 days later, they were analyzed by flow cytometry using IL-17 and Foxp3 fluorescent antibodies. In some experiments, 5 μM PKC-η pseudosubstrate inhibitor (sc-3096; Santa Cruz) or 5 μM ERK inhibitor (UO126, 662005; Sigma) were also added.
For flow cytometric analysis of living cells only, dead cells were excluded using the Zombie Aqua™ fixable viability kit (Biolegend) before staining with antibodies at room temperature for 10 minutes. After washing, surface proteins of the differentiated Th1, Th17 and Treg cells were stained with monoclonal antibodies at 4° C. for 15 minutes. To determine intracellular cytokine levels, the cells were restimulated with a cell stimulation cocktail (plus protein transport inhibitors) (ThermoFisher) at 37° C. for 4 hours and then stained with surface marker antibodies. The cells were then fixed, permeabilized using a Foxp3/transcription factor staining buffer set (eBioscience) and stained with anti-mouse IFN-γ, anti-mouse IL-17 and anti-mouse Foxp3. The cells were analyzed using a FACS Canto II flow cytometer and the FlowJo software version 10.7.

[3] = 100 μg intraperitoneally once a day from day 7

Molecule: KMLKKRSKMLKKRSKMLKKRS (K3) [Example K3]
- clinical symptoms (clinical score) [1]: significantly remarkable superior result in clinical symptoms than the K1 group
- number of Treg cells (spinal cord) [1, 3]: larger number of Treg cells than the K1 group
- number of infiltrated lymphocytes in the spinal cord [1, 3]: significantly number of infiltrated lymphocytes in the spinal cord as compared to the K1 group
- effect of suppressing immune response compared to the dNP2-ctCTLA-4 group ([2]; 4 days, versus dNP2-ctCTLA-4 positive control): comparable effect
- effect of suppressing immune response (decrease of IL-17 and increase of Foxp3) [2]: significantly better effect of suppressing immune response than the PBS (control group); also recorded: significantly superior effect of suppressing immune response as compared to the PBS group
- effect of suppressing immune response (decrease of IL-17 and increase of Foxp3) ([2]; listed as Example 4): the activity of inhibiting immune cells is significantly superior

Molecule: RRRWCKRRRGGKMLKKRSKMLKKRS (AP-K2)
- clinical symptoms (clinical score) [1]: significantly improved results for clinical symptoms as compared to the PBS (control group); also recorded: significantly improved result for clinical symptoms as compared to the PBS group
- number of regulatory T cells (Treg) compared to dNP2-ctCTLA-4 [1, 3]: an increase comparable to that of dNP2-ctCTLA-4
- number of Treg cells (spinal cord) [1, 3]: significantly number of regulatory T cells (Treg) as compared to the PBS (control group)
- number of infiltrated lymphocytes in the spinal cord [1, 3]: significantly smaller number of infiltrated lymphocytes in the spinal cord as compared to the PBS (control group), dNP2 and AP groups; also recorded: significantly smaller number of infiltrated lymphocytes in the spinal cord than the PBS (control group)
- number of infiltrated lymphocytes in the spinal cord, ranking among the groups ([1]; 100 μg intraperitoneally once a day from day 7 to day 13, groups K2, AP-K2, Myr-K2, Myr-K3): most superior effects
- expression of IL-17 T cells, IFN-γ T cells and Foxp3 T cells compared to PBS ([1]; 100 μg intraperitoneally once a day from day 7 to day 13, spinal cord lymphocytes): inhibited expression of II-17 T cells and IFN-γ T cells and increase of Foxp3 T cells as compared to the PBS (control group)
- effect of inhibiting the IL-17 cytokine compared to the dNP2-ctCTLA-4 group ([2]; 4 days): remarkably superior effect of inhibiting the IL-17 cytokine as compared to the dNP2-ctCTLA-4 group
- reduction of IL-17 as compared to the control group ([2]; 4 days, CD4+IL-17A+ T cells): reduced IL-17 to half or less
- increase of Foxp3 as compared to the control group ([2]; 4 days, CD4+foxp3+ T cells): ≥ 5 times
- effect of suppressing immune response (decrease of IL-17 and increase of Foxp3) [2]: significantly better effect of suppressing immune response than the PBS (control group)

Molecule: RRRWCKRRRGGKMLKKRSKMLKKRSKMLKKRS (AP-K3)
- clinical symptoms (clinical score) [1]: significantly improved results for clinical symptoms as compared to the PBS (control group)
- number of Treg cells (spinal cord) [1, 3]: significantly number of regulatory T cells (Treg) as compared to the PBS (control group)
- number of infiltrated lymphocytes in the spinal cord [1, 3]: significantly smaller number of infiltrated lymphocytes in the spinal cord as compared to the PBS (control group), dNP2 and AP groups
- effect of inhibiting the IL-17 cytokine compared to the dNP2-ctCTLA-4 group ([2]; 4 days): remarkably superior effect of inhibiting the IL-17 cytokine as compared to the dNP2-ctCTLA-4 group
- effect of suppressing immune response (decrease of IL-17 and increase of Foxp3) [2]: significantly better effect of suppressing immune response than the PBS (control group)

B1: KIKKVKKKGRKGSKIKKVKKKGRKGGAMLAAASPLTTGVYVKMPPTEPECEKQFQPYFIPIN (peptide)
chain: KIKKVKKKGRKGSKIKKVKKKGRKGGAMLAAASPLTTGVYVKMPPTEPECEKQFQPYFIPIN
notes: dNP2-ctCTLA-4 variant, K motif residues replaced with alanine
- clinical symptoms (clinical score) [1]: significantly lower clinical symptoms as compared to the PBS group
- number of Treg cells (spinal cord) [1, 3]: smallest number of Treg cells
- number of infiltrated lymphocytes in the spinal cord [1, 3]: significantly larger number of infiltrated lymphocytes in the spinal cord as compared to the PBS group
- function of inhibiting myelin damage (histological analysis of the spinal cord) ([1]; 100 μg intraperitoneally once a day from day 7 to day 14, luxol fast blue, H&E): the function of inhibiting myelin damage was lost
- effect of suppressing immune response (decrease of IL-17 and increase of Foxp3) [2]: the function of the decrease of IL-17 and the increase of Foxp3 was lost
